Experiment: Sensory test of toothpaste with eucalyptus menthol type flavoring by trained expert panel
Assay type: in vivo
Details: compared with 1-menthyl methyl ether
Experimental: Production of a Toothpaste Flavoring of the Eucalyptus Menthol Type, Using Menthyl Methyl Ether
The following were mixed:
In a second mixture batch, the 1,8-cineole (eucalyptol) content was replaced by 1-menthyl methyl ether. Both flavorings are incorporated at a concentration of 1.3% by weight into a standard toothpaste mix based on silicic acid. Both types of toothpaste were tested under conditions of practice by an expert panel trained in sensory testing.

Row | SMILES | sensory effects when used instead of 1-menthyl methyl ether
1 | COC(C)C1CCCC(C)(C)C1 (stereo not drawn) [1-(3,3-Dimethylcyclohexyl)ethyl methyl ether] | Comparable effects
2 | COC1CC(C)CC(C)(C)C1 (stereo not drawn) [3,3,5-trimethylcyclohexyl methyl ether] | Comparable effects
3 | C=C(C)C1CCC(C)CC1OC (stereo not drawn) [isopulegyl methyl ether, Isopulegyl methyl ether] | Comparable effects

From patent US8569383B2, “Utilization of rhinologically active substances” (Symrise AG, priority 2000, dated 2013)
